The source of these data is paper PMC10817174, “Integrated drug response prediction models pinpoint repurposed drugs with effectiveness against rhabdomyosarcoma” (PLOS ONE, 2024).

Molecules are shown by their SMILES. Entries after “also recorded” stand apart in the source; their conditions may differ. Like-named read-outs stand apart in the source and are kept apart here.

The test system of data set [1] is GDSC-SJCRH30 cell line. Particulars: cited from earlier work; for Iorio_SJCRH30: Table S2, published drug response ref Iorio et al. (2016).
Data set [2] relates to CCD-18Co (human colon fibroblast) cells. The data set is described as follows: MTT cell viability assay in normal control cells. Particulars: for IC50 / IC50(μM) CCD-18Co: normal cell control, 24 h; for selective anti-cancer activity against the RMS cell lines: based on the CCD-18Co control results. The format is cell-based. The text has this:
(§1) The RD (human embryonal rhabdomyosarcoma) and CCD-18Co (human colon fibroblast) cell lines were purchased from the Korean Cell Line Bank (KCLB). SJCRH30 (human alveolar rhabdomyosarcoma) cell line was purchased from the American Type Culture Collection (ATCC). RD and CCD-18Co cells were maintained in Dulbecco’s Modified Eagle’s Medium (DMEM; Gibco) supplemented with 10% fetal bovine serum (FBS; Gibco) and 1% penicillin/streptomycin (P/S; Gibco). SJCRH30 cells were maintained in Roswell Park Memorial Institute medium (RPMI 1640, Gibco) supplemented with 10% FBS and 1% P/S. Cells were grown in a humidified chamber containing 5% CO2 at 37°C. Cell line authentication was performed by short tandem repeat profile using PowerPlex® 18D system (Promega Corporation) and sequencing apparatus Applied Biosystems 3130xl Genetic Analyzer (Applied Biosystem) according to manufacturer’s protocol.
(§2) SJCRH30, RD, and CCD-18Co cells were seeded at 2 × 10^4 cells/well in 96-well plates. The candidate drugs were treated for 24 h. AZ628, BIX02189, fedratinib, nutlin-3a, VX-11e, SB590885, NSC207895, tubastatin A, CX-5461, navitoclax, GSK1070916 and the FDA-approved drug library were purchased from Selleckchem. GW.44175 was purchased from Cayman chemical. MTT (3-(4,5-Dimethylthiazol-2-yl)-2,5-Diphenyltetrazolium bromide, Sigma) cell viability detection reagent diluted in serum free medium was added to each well and incubated for 2 h at 37°C. The supernatant was removed, and 50 μL DMSO was added to dissolve the precipitate. Absorbance was measured at 570 nm using a Molecular Devices VersaMax microplate reader and SoftMax® Pro 5 software. IC50 was calculated with GraphPad Prism 7 software.
For orientation: Tetrazolium dyes change colour on reduction, which living cells bring about.

In data set [3] the test system is SJCRH30 (human alveolar rhabdomyosarcoma) cells. As to the kind of experiment: MTT cell viability assay in SJCRH30 cells. The format is cell-based. Particulars: 24 h; for anti-proliferation / anti-cancer activity in SJCRH30 cells: in words; for IC50: SJ-S drugs, SJCRH30 cells, read-out: IC50(μM) RMS.
Source text: as §1, §2

The test system of data set [4] is GDSC-RD cell line. The settings on record: cited from earlier work; for Iorio_RD: Table S2, published drug response ref Iorio et al. (2016).
Data set [5] relates to RD (human embryonal rhabdomyosarcoma) cells. The data set is described as follows: MTT cell viability assay in RD cells. It counts as cell-based. The settings on record: 24 h; for anti-proliferation / anti-cancer activity in RD cells: in words; for IC50: RD-S drugs, RD cells, read-out: IC50(μM) RMS.
Source text: as §1, §2

The subject of data set [6] is SJCRH30 cells. As to the kind of experiment: Caspase-3/7 activity assay in SJCRH30 cells. The format is cell-based, human. Particulars: 24 h. The protocol:
(§3) The activity of caspase-3/7 was detected with the CellEvent^TM Caspase-3/7 Green detection kit (Thermo Fisher Scientific, C10423), following the manufacturer’s instructions. SJCRH30 and RD cells were seeded at 2 × 10^4 cells/well in 96-well plates. […] Stained cells were observed under fluorescent microscopy (LEICA, DMI3000 B). Drugs were treated in triplicates and 4 pictures of each well were captured. The percentage of caspase-3/7 positive cells per field of view was quantified using ImageJ software.

Data set [7] relates to uterine sarcoma. The settings on record: in vitro and in vivo ref 44; cited from earlier work.
The conditions of data set [8]: heavily pre-treated soft-tissue sarcoma patients ref 43; cited from earlier work.
Data set [9] deals with RD cells. The data set is described as follows: Caspase-3/7 activity assay in RD cells. The format is cell-based, human. Particulars: 24 h. The protocol:
as §3

Data set [10] concerns Ewing’s sarcoma. The arrangement: method as in PMID 26095524. The settings on record: Ewing’s sarcoma ref 42; cited from earlier work.
Setting [11] is: Homo sapiens, Rhabdomyosarcoma cell.

For the molecule `CC1(C)CCC(c2ccc(Cl)cc2)=C(CN2CCN(c3ccc(C(=O)NS(=O)(=O)c4ccc(N[C@H](CCN5CCOCC5)CSc5ccccc5)c(S(=O)(=O)C(F)(F)F)c4)cc3)CC2)C1` [Navitoclax], the Iorio_SJCRH30 result in data set [1] is “R”. The IC50 (as a rule, the midpoint of a concentration-inhibition curve) in data set [2] (Homo sapiens, CCD-18Co, MTT) stood at 0.319 µM; in [3] (setting [11]), 0.764 µM. Moreover, in [3], the “anti-proliferation / anti-cancer activity in SJCRH30 cells” value was “higher anti-cancer activity”.

On to `Cc1cnc(Nc2ccc(F)cc2Cl)nc1-c1c[nH]c(C(=O)N[C@H](CO)c2cccc(Cl)c2)c1` [VX-11e], for which the Iorio_RD entry in [4] is recorded as “S”. In data set [5], the “anti-proliferation / anti-cancer activity in RD cells” value is “higher anti-cancer activity”. Also, the IC50 in data set [5] was found to be 3.79 µM; in data set [2] (MTT), 4.04 µM. Besides, the Iorio_SJCRH30 entry in data set [1] is given as “R”.

For `CN(C)CCOc1ccc(-c2nc(-c3ccncc3)c(-c3ccc4c(c3)CC/C4=N\O)[nH]2)cc1` [SB590885], in [5], the “anti-proliferation / anti-cancer activity in RD cells” value was “higher anti-cancer activity”. Further, the IC50 was found to be 2.52 µM in [5] (Homo sapiens) and 4.88 µM in data set [2] (Homo sapiens, CCD-18Co, MTT). Also, the Iorio_SJCRH30 result in [1] is “R”.

With `CCn1cc(-c2ccnc3[nH]c(-c4cccc(CN(C)C)c4)cc23)c(-c2ccc(NC(=O)N(C)C)cc2)n1` [GSK1070916], the Iorio_RD result in data set [4] is given as “R”. Moreover, the Iorio_SJCRH30 entry in data set [1] is recorded as “R”. For the same molecule, the “IC50(μM) CCD-18Co” value in [2] (MTT) is given as “No cytotoxicity”. Besides, in data set [3], the “anti-proliferation / anti-cancer activity in SJCRH30 cells” value is “higher anti-cancer activity”. Moreover, the IC50 in data set [3] (setting [11]) was 1.4 µM.

Turning to `O=C(/C=C/c1cccc(S(=O)(=O)Nc2ccccc2)c1)NO` [Belinostat], the caspase-3/7 activation entry in data set [6] is “increased level of caspase-3/7 activation”. The Iorio_RD entry in [4] is listed as “R”. In addition, in [1], the Iorio_SJCRH30 entry is given as “R” and the “GDSC-SJCRH30 drug response” value is “resistant”. Moreover, the “selective anti-cancer activity against the RMS cell lines” value in data set [2] is on record as “selective anti-cancer activity”. In data set [2] (MTT), the “IC50(μM) CCD-18Co” value is reported as “No cytotoxicity”. In data set [3], the “anti-proliferation / anti-cancer activity in SJCRH30 cells” value was “higher anti-cancer activity; also recorded: reduced cells proliferation to a greater degree than the clinical drugs; also recorded: sensitive” and the IC50 was determined as 0.146 µM. Further, the IC50 in data set [3] (setting [11]) was 0.146 µM.

Take `CCc1cc2c(cc1N1CCC(N3CCOCC3)CC1)C(C)(C)c1[nH]c3cc(C#N)ccc3c1C2=O` [Alectinib]: the Iorio_RD result in data set [4] is “R”. Further, the Iorio_SJCRH30 entry in data set [1] is listed as “S”. Besides, the IC50 is 5.96 µM in data set [2] (Homo sapiens, CCD-18Co, MTT) and 3.21 µM in data set [3] (setting [11]). Also, the “anti-proliferation / anti-cancer activity in SJCRH30 cells” value in data set [3] was “higher anti-cancer activity”.

As to `Cc1cnc(Nc2ccc(OCCN3CCCC3)cc2)nc1Nc1cccc(S(=O)(=O)NC(C)(C)C)c1` [fedratinib], in [4], the Iorio_RD result is “R” and the “GDSC-RD drug response” value is “resistance”. In addition, the “anti-proliferation / anti-cancer activity in RD cells” value in [5] is reported as “high non-selective anti-proliferation activity; also recorded: high in vitro sensitivity”. Besides, the Iorio_SJCRH30 entry in [1] is “R”. For the same molecule, the “toxicity toward the CCD-18Co control line” value in data set [2] (MTT, in words) is “toxicity toward the control line; also recorded: highly sensitive”. Further, the “anti-proliferation / anti-cancer activity in SJCRH30 cells” value in data set [3] is given as “high non-selective anti-proliferation activity; also recorded: high in vitro sensitivity”.

Take `O=C(CCCCCCC(=O)Nc1ccccc1)NO` [Vorinostat]: the caspase-3/7 activation result in data set [6] is reported as “increased level of caspase-3/7 activation”. In data set [7], the uterine sarcoma growth entry is given as “inhibited the uterine sarcoma growth”. In addition, in data set [1], the Iorio_SJCRH30 result is given as “S”. Moreover, the “patients with long-term disease stabilization” value in [8] is recorded as 6 of the 40. Further, the “anti-proliferation / anti-cancer activity in SJCRH30 cells” value in data set [3] is “higher anti-cancer activity; also recorded: reduced cells proliferation to a greater degree than the clinical drugs”.

Regarding `CN1CCN(c2ccc([N+](=O)[O-])c3no[n+]([O-])c23)CC1` [NSC207895], the caspase-3/7 activation entry in [9] is listed as “significantly induced the activation of caspase-3/7”. Further, in data set [10], the apoptosis induction entry is “induces p53-independent apoptosis”. For the same molecule, in data set [4], the Iorio_RD result is listed as “S”. Moreover, in data set [5], the “anti-proliferation / anti-cancer activity in RD cells” value was “higher anti-cancer activity; also recorded: effectively inhibited cell proliferation compared to vincristine and cyclophosphamide”; the IC50 came to 6.57 µM. Further, the Iorio_SJCRH30 result in data set [1] is recorded as “R”. Besides, in [2], the “selective anti-cancer activity against the RMS cell lines” value is on record as “selective anti-cancer activity”. Besides, in data set [2] (MTT), the “IC50(μM) CCD-18Co” value is reported as “No cytotoxicity”.
